The nature of data set [1]: in vitro. In kind it is in vitro ADME. Conditions: hepatocytes, 3 μM compound, read-out: Liver Hepatocyte Stability t1/2. As for the experimental part:
Compounds were subjected to the following assays to investigate liver microsomal stability and hepatocyte stability.
Hepatocyte Incubation: Experimental Procedure
Cryopreserved pooled hepatocytes were purchased from a reputable commercial supplier and stored in liquid nitrogen prior to use. Williams E media supplemented with 2 mM L-glutamine and 25 mM HEPES and test compound (final substrate concentration 3 μM; final DMSO concentration 0.25%) are pre-incubated at 37° C. prior to the addition of a suspension of cryopreserved hepatocytes (final cell density 0.5×10^6 viable cells/mL in Williams E media supplemented with 2 mM L-glutamine and 25 mM HEPES) to initiate the reaction. The final incubation volume is 500 μL. Two control compounds were included with each species, alongside appropriate vehicle control. The reactions are stopped by transferring 50 μL of incubate to 100 μL acetonitrile containing internal standard at the appropriate time points. Samples were removed at 6 time points (0, 5, 15, 30, 45 and 60 min) over the course of a 60 min experiment. The termination plates are centrifuged at 2500 rpm at 4° C. for 30 min to precipitate the protein. Following protein precipitation, the sample supernatants were combined in cassettes of up to 4 compounds and analysed using generic LC-MS/MS conditions. From a plot of ln peak area ratio (compound peak area/internal standard peak area) against time, the gradient of the line is determined. Subsequently, half-life (t1/2) and intrinsic clearance (CLint) were calculated.

Data set [2] is described as follows: in vitro. To be noted: microsomes, pH 7.4, 1 μM compound, 0.5 mg/mL protein, read-out: Liver Microsomal Stability t1/2. In kind it is in vitro ADME. Summed up:
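Pooled liver microsomes (0.5 mg/mL protein) in 0.1 M phosphate pH 7.4 with 1 μM compound and 1 mM NADPH at 37° C., sampled at 0–45 min; minus-NADPH control at 45 min. Acetonitrile quench, LC-MS/MS; t1/2 and CLint from ln peak-area ratio vs time slope.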
In general terms: Microsomes from liver hold many membrane-bound enzymes, among them those of drug oxidation.

The next data set is described as follows: Cell cytotoxicity (CC50). Format: cell-based. Conditions: human; mean of at least two experiments. In outline: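 Values are means of ≥2 independent runs, rounded to whole units, from 4-parameter variable-slope curve fits. Toxicity measured in Hep-G2 cells run alongside RSV plaque-reduction assays.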
The subject of a further data set is RSV A2. Nature of the data set: RSV plaque reduction assay. In kind it is cell-based, respiratory syncytial virus (RSV). To be noted: human respiratory syncytial virus, HepG2, Hep-G2 cells, mean of at least two experiments. In outline:
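RSV A2 at 100 PFU/well was premixed with eight compound dilutions and added to confluent Hep-G2 monolayers for 2 h at 37 °C. Cells were then kept 2 days under a DMEM/2% FBS/0.8% CMC overlay containing compound. Immunostained plaques were counted relative to virus controls, and EC50 came from 4-parameter fits, averaged over at least two experiments.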
In general terms: In a plaque reduction assay, fewer plaques than in the control indicate reduced infectivity or spread.

Where two headings read alike, the source gives them in different places.

Consider `Cc1ccc2nc(-c3ccccc3F)c(C(=O)N[C@H]3N=C(c4ccccc4)c4cccc(F)c4NC3=O)n2n1` [Example 19, N-[(3S)-9-fluoro-2-oxo-5-phenyl-1,3-dihydro-1,4-benzodiazepin-3-yl]-2-(2-fluorophenyl)-6-methylimidazo[1,2-b]pyridazine-3-carboxamide], for which the half-life at 3 μM in “in vitro [1]” (dog) is > 3.1 h; in “in vitro [1]” (human), 2.02 h; in “in vitro [1]” (rat), 1.6 h. In addition, the values for the half-life at 1 μM in “in vitro [2]” (dog), in “in vitro [2]” (human) and in “in vitro [2]” (rat) were > 2.33 h, > 2.33 h and 0.477 h, respectively. Also, in “Cell cytotoxicity (CC50)”, the CC50 was > 25000 nM. The same compound came in with a concentration for a half-maximal effect (EC50) with RSV A2 of 31 nM.

Regarding `COc1ccc2nc(-c3ccncc3F)c(C(=O)N[C@H]3N=C(c4ccccc4)c4cccc(F)c4NC3=O)n2n1` [Example 119, N-[(3S)-9-fluoro-2-oxo-5-phenyl-1,3-dihydro-1,4-benzodiazepin-3-yl]-2-(3-fluoropyridin-4-yl)-6-methoxyimidazo[1,2-b]pyridazine-3-carboxamide], the half-life at 3 μM in “in vitro [1]” (dog) was 4.92 h; in “in vitro [1]” (human) it was > 3.1 h; in the data set “in vitro [1]” (rat) it was 1.97 h. The half-life at 1 μM in the data set “in vitro [2]” (dog) is 7.4 h; in “in vitro [2]” (human), 2.68 h; in the data set “in vitro [2]” (rat) it was 0.863 h. In addition, in the data set “Cell cytotoxicity (CC50)”, the CC50 is > 25000 nM. In addition, in the data set with RSV A2, it took 28 nM to reach a half-maximal effect (EC50).

`Cc1ccn2nc(-c3ccccc3F)c(C(=O)N[C@H]3N=C(c4ccccc4)c4cccc(F)c4NC3=O)c2n1` [Example 23, N-[(3S)-9-Fluoro-2-oxo-5-phenyl-1,3-dihydro-1,4-benzodiazepin-3-yl]-2-(2-fluorophenyl)-5-methylpyrazolo[1,5-a]pyrimidine-3-carboxamide]: the values for the half-life at 3 μM in “in vitro [1]” (dog), in “in vitro [1]” (human) and in the data set “in vitro [1]” (rat) were 3.57 h, 8.65 h and 1.18 h, respectively. Besides, the half-life at 1 μM in “in vitro [2]” (dog) stood at 15 h; in the data set “in vitro [2]” (human), 6.65 h; in “in vitro [2]” (rat), 0.555 h. For the same compound, the CC50 in “Cell cytotoxicity (CC50)” was > 25000 nM. In the data set on RSV A2, this compound gave an EC50 of 21 nM.

For the compound `O=C(N[C@H]1N=C(c2ccccc2)c2cccc(F)c2NC1=O)c1c(-c2ccccc2F)nc2cccnn12` [Example 18, N-[(3S)-9-fluoro-2-oxo-5-phenyl-1,3-dihydro-1,4-benzodiazepin-3-yl]-2-(2-fluorophenyl)imidazo[1,2-b]pyridazine-3-carboxamide], the values for the half-life at 3 μM in “in vitro [1]” (dog), in “in vitro [1]” (human) and in the data set “in vitro [1]” (rat) were 2.12 h, 11.6 h and 1.11 h, respectively. Also, the half-life at 1 μM in “in vitro [2]” (dog) came out at 6.9 h; in the data set “in vitro [2]” (human) it was 12.3 h; in the data set “in vitro [2]” (rat) it was 0.838 h. The CC50 in “Cell cytotoxicity (CC50)” is > 25000 nM. In addition, it took 28 nM to reach a half-maximal effect with RSV A2 (EC50).

`O=C(N[C@H]1N=C(c2ccccc2)c2ccccc2NC1=O)c1c(-c2cncc(Cl)c2)nn2cccnc12` [Example 27, 2-(5-Chloropyridin-3-yl)-N-[(3S)-2-oxo-5-phenyl-1,3-dihydro-1,4-benzodiazepin-3-yl]pyrazolo[1,5-a]pyrimidine-3-carboxamide]: the half-life at 1 μM in the data set “in vitro [2]” (dog) was found to be 0.997 h; in the data set “in vitro [2]” (human), 2.03 h; in the data set “in vitro [2]” (rat), 8.75 h. Besides, in “Cell cytotoxicity (CC50)”, the CC50 was > 25000 nM. Besides, the half-maximal effective concentration (EC50) in the data set on RSV A2 stood at 61 nM.

For `O=C(N[C@H]1N=C(c2ccccc2)c2cccc(F)c2NC1=O)c1c(-c2ccccc2F)nn2cccnc12` [Example 3, N-[(3S)-9-fluoro-2-oxo-5-phenyl-1,3-dihydro-1,4-benzodiazepin-3-yl]-2-(2-fluorophenyl)pyrazolo[1,5-a]pyrimidine-3-carboxamide], the half-life at 3 μM was > 3.1 h in “in vitro [1]” (dog), 4.28 h in the data set “in vitro [1]” (human) and 1.36 h in the data set “in vitro [1]” (rat). For the same compound, the half-life at 1 μM in the data set “in vitro [2]” (dog) was > 2.33 h; in “in vitro [2]” (human), 5.5 h; in the data set “in vitro [2]” (rat), > 2.33 h. In addition, the cytotoxic concentration (CC50) in “Cell cytotoxicity (CC50)” is > 25000 nM. In the data set with RSV A2, this compound gave a 50% effective concentration (EC50) of 90 nM.

Regarding `Cc1ccn2nc(-c3ccc(F)cc3F)c(C(=O)N[C@H]3N=C(c4ccccc4)c4cccc(F)c4NC3=O)c2n1` [Example 36, 2-(2,4-Difluorophenyl)-N-[(3S)-9-fluoro-2-oxo-5-phenyl-1,3-dihydro-1,4-benzodiazepin-3-yl]-5-methylpyrazolo[1,5-a]pyrimidine-3-carboxamide], the half-life at 1 μM was 3.7 h in “in vitro [2]” (dog), > 2.33 h in the data set “in vitro [2]” (human) and 0.557 h in “in vitro [2]” (rat). The CC50 in “Cell cytotoxicity (CC50)” is > 25000 nM. In the data set with RSV A2, this compound gave a concentration giving a half-maximal response (EC50) of 27 nM.

On to `CN1CCN(c2ccc3nc(-c4ccccc4F)c(C(=O)N[C@H]4N=C(c5ccccc5)c5cccc(F)c5NC4=O)n3n2)CC1` [Example 95, N-[(3S)-9-fluoro-2-oxo-5-phenyl-1,3-dihydro-1,4-benzodiazepin-3-yl]-2-(2-fluorophenyl)-6-(4-methylpiperazin-1-yl)imidazo[1,2-b]pyridazine-3-carboxamide], for which the results for the half-life at 1 μM in “in vitro [2]” (dog), in the data set “in vitro [2]” (human) and in the data set “in vitro [2]” (rat) were 1.11 h, 0.948 h and 0.595 h, respectively. In addition, the CC50 in “Cell cytotoxicity (CC50)” was > 21100 nM. In addition, the EC50 in the data set with RSV A2 was determined as 93 nM.

For the compound `O=C(N[C@H]1N=C(c2ccccc2)c2cccc(F)c2NC1=O)c1c(-c2cccc(F)c2F)nn2cccnc12` [Example 42, 2-(2,3-Difluorophenyl)-N-[(3S)-9-fluoro-2-oxo-5-phenyl-1,3-dihydro-1,4-benzodiazepin-3-yl]pyrazolo[1,5-a]pyrimidine-3-carboxamide], the half-life at 1 μM is 12.2 h in the data set “in vitro [2]” (dog), > 2.33 h in “in vitro [2]” (human) and 2.83 h in “in vitro [2]” (rat). Also, the CC50 in the data set “Cell cytotoxicity (CC50)” was > 14000 nM. The compound also had a half-maximal effective concentration (EC50) with RSV A2 of 41 nM.

Take `Cc1ccc2nc(-c3ccc(F)cn3)c(C(=O)N[C@H]3N=C(c4ccccc4)c4cccc(F)c4NC3=O)n2n1` [Example 78, N-[(3S)-9-fluoro-2-oxo-5-phenyl-1,3-dihydro-1,4-benzodiazepin-3-yl]-2-(5-fluoropyridin-2-yl)-6-methylimidazo[1,2-b]pyridazine-3-carboxamide]: the half-life at 1 μM in the data set “in vitro [2]” (dog) came out at 4.17 h; in the data set “in vitro [2]” (human) it was 3.83 h; in the data set “in vitro [2]” (rat), 0.923 h. For the same compound, the cytotoxic concentration (CC50) in “Cell cytotoxicity (CC50)” is > 25000 nM. The same compound had a 50% effective concentration (EC50) with RSV A2 of 81 nM.

With `CC(C)Nc1ccc(-c2nn3cccnc3c2C(=O)N[C@H]2N=C(c3ccccc3)c3cccc(F)c3NC2=O)c(F)n1` [Example 70, N-[(3S)-9-Fluoro-2-oxo-5-phenyl-1,3-dihydro-1,4-benzodiazepin-3-yl]-2-[2-fluoro-6-(propan-2-ylamino)pyridin-3-yl]pyrazolo[1,5-a]pyrimidine-3-carboxamide], the half-life at 1 μM in the data set “in vitro [2]” (dog) was found to be 0.525 h; in “in vitro [2]” (human), 3.45 h; in the data set “in vitro [2]” (rat), 1.65 h. The CC50 in “Cell cytotoxicity (CC50)” is > 25000 nM. Moreover, a half-maximal effect with RSV A2 (EC50) was put at 23 nM.

As to `Cc1ccc2nc(-c3ccccc3)c(C(=O)N[C@H]3N=C(c4ccccc4)c4cccc(F)c4NC3=O)n2n1` [Example 93, N-[(3S)-9-Fluoro-2-oxo-5-phenyl-1,3-dihydro-1,4-benzodiazepin-3-yl]-6-methyl-2-phenylimidazo[1,2-b]pyridazine-3-carboxamide], the figures for the half-life at 3 μM in “in vitro [1]” (dog), in the data set “in vitro [1]” (human) and in “in vitro [1]” (rat) were 7.42 h, 4.9 h and 1.19 h, respectively. Further, the half-life at 1 μM in “in vitro [2]” (dog) stood at 23.7 h; in the data set “in vitro [2]” (human), 34.8 h; in “in vitro [2]” (rat) it was 0.685 h. Further, in “Cell cytotoxicity (CC50)”, the CC50 is > 25000 nM. Further, the 50% effective concentration (EC50) in the data set on RSV A2 stood at 33 nM.

The term CC50 denotes the concentration at which the toxic effect on the cells reaches its halfway point. High values mean better tolerance by the cells, low ones harm at low concentration. The EC50 is the concentration at which the effect is half-maximal. The low end stands for greater potency, the high end for weaker potency.

The values above are taken from US11634425B2, “Pharmaceutical compounds” (priority 2019, dated 2023).
